Consider 26 compounds from BindingDB's records for doi:10.1021/jm990041+ (Rhone-Poulenc Rorer, 1999).

pKi: −log10 of the molar value. Some results are limits rather than exact numbers.

The first assay has as its target T1, Serine protease 1 (Bos taurus, UniProt P00760).
T1 sequence (P00760 whole entry): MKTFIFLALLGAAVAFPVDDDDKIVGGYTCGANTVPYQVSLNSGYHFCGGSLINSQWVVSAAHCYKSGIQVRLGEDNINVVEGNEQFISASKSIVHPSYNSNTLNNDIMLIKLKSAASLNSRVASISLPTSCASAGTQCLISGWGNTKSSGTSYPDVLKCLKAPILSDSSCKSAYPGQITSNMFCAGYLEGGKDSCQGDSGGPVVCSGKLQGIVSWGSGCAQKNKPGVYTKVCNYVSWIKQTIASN
Nature of the assay: Enzyme Assay and Determination of the Inhibition Constants.
Conditions: not given
On to `N=C(N)c1cccc(CN2CC[C@H](NS(=O)(=O)c3ccc(-c4cccnc4)cc3)C2=O)c1` [3-{[(3S)-2-oxo-3-{[4-(pyridin-3-yl)benzene]sulfonamido}pyrrolidin-1-yl]methyl}benzene-1-carboximidamide], for which the negative-log Ki (pKi) (as a rule, −log10 of the Ki, conventionally taken in molar units) was < 5.54.

As to `N=C(N)c1ccc(O)c(CN2CC[C@H](NS(=O)(=O)c3ccc(-c4ccon4)s3)C2=O)c1` [4-hydroxy-3-{[(3S)-3-{[5-(1,2-oxazol-3-yl)thiophene-2-]sulfonamido}-2-oxopyrrolidin-1-yl]methyl}benzene-1-carboximidamide], the negative logarithm of the Ki (pKi) is 5.54.

On to `N=C(N)c1cccc(CN2CC[C@H](NS(=O)(=O)c3ccc(-c4ccccn4)s3)C2=O)c1` [3-{[(3S)-2-oxo-3-{[5-(pyridin-2-yl)thiophene-2-]sulfonamido}pyrrolidin-1-yl]methyl}benzene-1-carboximidamide], for which the pKi is 5.68.

`N=C(N)c1ccc(N)c(CN2CC[C@H](NS(=O)(=O)c3ccc(-c4cccnc4)s3)C2=O)c1` [4-amino-3-{[(3S)-2-oxo-3-{[5-(pyridin-3-yl)thiophene-2-]sulfonamido}pyrrolidin-1-yl]methyl}benzene-1-carboximidamide] had a pKi of 5.82.

Turning to `C[n+]1ccc(-c2ccc(S(=O)(=O)N[C@H]3CCN(Cc4cccc(C(=N)N)c4)C3=O)cc2)cc1` [4-(4-{[(3S)-1-[(3-carbamimidoylphenyl)methyl]-2-oxopyrrolidin-3-yl]sulfamoyl}phenyl)-1-methylpyridin-1-ium], the negative-log Ki (pKi) was < 5.54.

`N=C(N)c1cccc(CN2CC[C@H](NS(=O)(=O)c3ccc(-c4ccncc4)cc3)C2=O)c1` [3-{[(3S)-2-oxo-3-{[4-(pyridin-4-yl)benzene]sulfonamido}pyrrolidin-1-yl]methyl}benzene-1-carboximidamide]: the negative-log Ki (pKi) is < 5.54.

Regarding `N=C(N)c1cccc(CN2CC[C@H](NS(=O)(=O)c3ccc(-c4cccnc4)s3)C2=O)c1` [3-[2-Oxo-3-(S)-(5-pyridin-3-ylthiophene-2-ylsulfonylamino)-pyrrolidin-1-ylmethyl]benzamidine], the negative-log Ki (pKi) was < 5.54.

In the case of `Cn1ccnc1-c1ccc(S(=O)(=O)N[C@H]2CCN(Cc3cccc(C(=N)N)c3)C2=O)cc1` [3-{[(3S)-3-{[4-(1-methyl-1H-imidazol-2-yl)benzene]sulfonamido}-2-oxopyrrolidin-1-yl]methyl}benzene-1-carboximidamide], the pKi is < 5.54.

For the compound `N=C(N)c1ccc(F)c(CN2CC[C@H](NS(=O)(=O)c3ccc(-c4cccnc4)s3)C2=O)c1` [4-fluoro-3-[((3S)-2-oxo-3-{[(5-pyridin-3-ylthien-2-yl)sulfonyl]amino}pyrrolidin-1-yl)methyl]benzenecarboximidamide], the pKi is < 5.54.

With `COc1nccc(-c2ccc(S(=O)(=O)N[C@H]3CCN(Cc4cccc(C(=N)N)c4)C3=O)s2)n1` [3-{[(3S)-3-{[5-(2-methoxypyrimidin-4-yl)thiophene-2-]sulfonamido}-2-oxopyrrolidin-1-yl]methyl}benzene-1-carboximidamide], the pKi is < 5.54.

In the case of `N=C(N)c1cccc(CN2CC[C@H](NS(=O)(=O)c3ccc(-c4ccon4)s3)C2=O)c1` [3-[3-(S)-(5-Isoxazol-3-ylthiophene-2-ylsulfonylamino)-2-oxopyrrolidin-1-ylmethyl]benzamidine], the pKi is 5.72.

Consider `N=C(N)c1cccc(CN2CC[C@H](NS(=O)(=O)c3ccc(-c4ccncc4)s3)C2=O)c1` [3-{[(3S)-2-oxo-3-{[5-(pyridin-4-yl)thiophene-2-]sulfonamido}pyrrolidin-1-yl]methyl}benzene-1-carboximidamide], for which the pKi was < 5.54.

`N=C(N)c1ccc(N)c(CN2CC[C@H](NS(=O)(=O)c3ccc(-c4ccon4)s3)C2=O)c1` [4-Amino-3-[3-(S)-(5-isoxazol-3-ylthiophene-2-ylsulfonylamino)-2-oxopyrrolidin-1-ylmethyl]benzamidine] showed a pKi of 5.77.

Regarding `N=C(N)c1cccc(CN2CC[C@H](NS(=O)(=O)c3ccc(-c4cc[n+]([O-])cc4)cc3)C2=O)c1` [4-(4-{[(3S)-1-[(3-carbamimidoylphenyl)methyl]-2-oxopyrrolidin-3-yl]sulfamoyl}phenyl)-1-oxidopyridin-1-ium], the pKi was < 5.54.

The same assay, now with this note: pH 7.5; 22 °C.
With `COc1ccc2ccc(S(=O)(=O)N[C@H]3CCN(Cc4cc(N)cc(C(=N)N)c4)C3=O)cc2c1` [3-Amino-5-[3-(S)-(7-methoxynaphthalen-2-ylsulfonylamino)-2-oxopyrrolidin-1-ylmethyl]benzamidine], the pKi is < 5.54.

The compound `COc1ccc2ccc(S(=O)(=O)N[C@H]3CCN(Cc4cc(C(=N)N)ccc4N)C3=O)cc2c1` [4-amino-3-{[(3S)-3-[(7-methoxynaphthalene-2-)sulfonamido]-2-oxopyrrolidin-1-yl]methyl}benzene-1-carboximidamide] showed a pKi of 6.52.

For the compound `COc1ccc2ccc(S(=O)(=O)N(C)[C@H]3CCN(Cc4cccc(C(=N)N)c4)C3=O)cc2c1` [3-{[(3S)-3-[(7-methoxynaphthalene-2-)(methyl)sulfonamido]-2-oxopyrrolidin-1-yl]methyl}benzene-1-carboximidamide], the negative logarithm of the Ki (pKi) was 6.15.

Regarding `COC(=O)COc1ccc(C(=N)N)cc1CN1CC[C@H](NS(=O)(=O)c2ccc3ccc(OC)cc3c2)C1=O` [methyl 2-(4-carbamimidoyl-2-{[(3S)-3-[(7-methoxynaphthalene-2-)sulfonamido]-2-oxopyrrolidin-1-yl]methyl}phenoxy)acetate], the pKi is 7.92.

Regarding `COc1ccc2ccc(S(=O)(=O)N(C)[C@H]3CCN(Cc4cc(C(=N)N)ccc4N)C3=O)cc2c1` [4-amino-3-{[(3S)-3-[(7-methoxynaphthalene-2-)(methyl)sulfonamido]-2-oxopyrrolidin-1-yl]methyl}benzene-1-carboximidamide], the negative-log Ki (pKi) is 6.72.

Regarding `COc1ccc2ccc(S(=O)(=O)N[C@H]3CCN(Cc4ccc(O)c(C(=N)N)c4)C3=O)cc2c1` [2-hydroxy-5-{[(3S)-3-[(7-methoxynaphthalene-2-)sulfonamido]-2-oxopyrrolidin-1-yl]methyl}benzene-1-carboximidamide], the negative logarithm of the Ki (pKi) is < 5.54.

`COc1ccc2ccc(S(=O)(=O)N[C@H]3CCN(Cc4cc(C(=N)N)ccc4O)C3=O)cc2c1` [4-hydroxy-3-{[(3S)-3-[(7-methoxynaphthalene-2-)sulfonamido]-2-oxopyrrolidin-1-yl]methyl}benzene-1-carboximidamide] had a pKi of 6.52.

Regarding `COc1ccc2ccc(S(=O)(=O)N(C)[C@H]3CCN(Cc4cc(C(=N)N)ccc4NC(C)=O)C3=O)cc2c1` [N-(4-carbamimidoyl-2-{[(3S)-3-[(7-methoxynaphthalene-2-)(methyl)sulfonamido]-2-oxopyrrolidin-1-yl]methyl}phenyl)acetamide], the pKi was < 5.54.

Compound `COc1ccc2ccc(S(=O)(=O)N[C@H]3CCN(Cc4cccc(C(=N)N)c4)C3=O)cc2c1` [3-{[(3S)-3-[(7-methoxynaphthalene-2-)sulfonamido]-2-oxopyrrolidin-1-yl]methyl}benzene-1-carboximidamide] showed a negative-log Ki (pKi) of 6.07.

For the compound `N=C(N)c1cccc(CN2CC[C@H](NS(=O)(=O)c3ccc(-c4ccccn4)cc3)C2=O)c1` [3-{[(3S)-2-oxo-3-{[4-(pyridin-2-yl)benzene]sulfonamido}pyrrolidin-1-yl]methyl}benzene-1-carboximidamide], the pKi is < 5.54.

On to `COc1ccc2ccc(S(=O)(=O)N[C@H]3CCN(Cc4cc(C(=N)N)ccc4OCC(=O)O)C3=O)cc2c1` [2-(4-carbamimidoyl-2-{[(3S)-3-[(7-methoxynaphthalene-2-)sulfonamido]-2-oxopyrrolidin-1-yl]methyl}phenoxy)acetic acid], for which the negative logarithm of the Ki (pKi) is < 5.54.

`N=C(N)c1cccc(CN2CC[C@H](NS(=O)(=O)c3ccc(-c4ccccc4)cc3)C2=O)c1` [3-{[(3S)-2-oxo-3-[(4-phenylbenzene)sulfonamido]pyrrolidin-1-yl]methyl}benzene-1-carboximidamide]: the pKi is < 5.54.

The target in the next assay is Coagulation factor X (Homo sapiens, UniProt P00742). The assay is described as above.
Sequence of Coagulation factor X (P00742 41-179 limits assumed): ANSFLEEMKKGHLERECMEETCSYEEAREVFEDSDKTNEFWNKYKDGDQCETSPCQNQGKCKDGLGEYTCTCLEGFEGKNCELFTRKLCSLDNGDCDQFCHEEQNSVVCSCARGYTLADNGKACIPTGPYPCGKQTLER
Sequence of Coagulation factor X (P00742 235-488 limits assumed): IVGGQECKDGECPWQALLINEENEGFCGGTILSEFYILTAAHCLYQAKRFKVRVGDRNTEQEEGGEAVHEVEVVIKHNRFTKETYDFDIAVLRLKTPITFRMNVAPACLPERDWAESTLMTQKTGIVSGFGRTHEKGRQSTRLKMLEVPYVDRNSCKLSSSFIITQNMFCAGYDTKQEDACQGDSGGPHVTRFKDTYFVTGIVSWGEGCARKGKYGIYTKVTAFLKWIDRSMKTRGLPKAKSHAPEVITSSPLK
Conditions: not given
As to `C[n+]1ccc(-c2ccc(S(=O)(=O)N[C@H]3CCN(Cc4cccc(C(=N)N)c4)C3=O)cc2)cc1` [4-(4-{[(3S)-1-[(3-carbamimidoylphenyl)methyl]-2-oxopyrrolidin-3-yl]sulfamoyl}phenyl)-1-methylpyridin-1-ium], the negative logarithm of the Ki (pKi) is < 6.00.
